Patent US20250154105A1, “POLYCYCLIC COMPOUND AND USE THEREOF” (TYK MEDICINES, INC., priority 2021, published 2025)

Columns and labels:
YAP-TEAD = YAP-TEAD inhibitor activity by Nano luciferase method (8xGTiiC-nLuc reporter in 293T cells); format: cell-based; settings: Homo sapiens, HEK-293T, 48 hours incubation, read-out: Nano-luciferase detection (IC50)
In short: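 IC50 derived from nLuc reporter signal normalised to 0 nM wells, after 48 h, 37 °C compound exposure (1:3.16 series, highest 10,000 nM). Cells: 293T transfected with 8xGTiiC-nLuc/CMV-fLuc plasmid, plated at 2000 per well.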

[1] = tested on: human pleural mesothelioma cells NCI-H226; assay: Cell anti-proliferation experiment (CCK8), NCI-H226; format: cell-based
In short: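 Viability was measured by CCK-8 (3 h, A450) after 3-day treatment with 0.15–333.33 nM compound in 0.1% DMSO medium. Curve-fitted IC50 was based on viability normalised to no-drug and cell-free controls.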

Row | SMILES | IC50 (YAP-TEAD) [nM] | IC50 [1] [nM]
1 | C[C@H](NC(=O)c1cnc2c(c1)c1nn(C)cc1c(=O)n2-c1ccc(C(F)(F)F)cc1)c1ccccn1 [Example T-243] | ≤ 1000 | ≤ 1000
2 | CNS(=O)(=O)c1ccc2c(c1)-c1ncn(C)c1CN2c1ccc(C(F)(F)F)cc1 [Example T-7] | ≤ 1000 | ≤ 1000
3 | C[C@H](NC(=O)c1ccc2c(c1)c1c(c(=O)n2C2CCC(F)(F)CC2)CCC1)c1ccccn1 [Example T-266] | ≤ 1000 | ≤ 1000
4 | CNS(=O)(=O)c1ccc2c(c1)c1ncn(C)c1c(=O)n2Cc1ccc(C(F)(F)F)cc1 [Example T-48] | ≤ 1000 | ≤ 1000
5 | C[C@H](NC(=O)c1ccc2c(c1)c1nn(C)cc1c(=O)n2Cc1ccccc1)c1ccccn1 [Example T-271] | ≤ 1000 | ≤ 1000
6 | CNS(=O)(=O)c1ccc2c(c1)c1nn(C)cc1c(=O)n2-c1ccc(F)c(F)c1 [Example T-68] | ≤ 1000 | ≤ 1000
7 | Cc1scc2c(=O)n(-c3ccc(C(F)(F)F)cc3)c3ncc(C(=O)N[C@@H](C)c4ccccn4)cc3c12 [Example T-372] | 1000 to 5000 | 1000 to 5000
8 | CNS(=O)(=O)c1ccc2c(c1)c1c(c(=O)n2-c2ccc(C(F)(F)F)cc2)CCC1 [Example T-427] | ≤ 1000 | ≤ 1000
9 | C[C@H](NC(=O)c1cnc2c(ccc(=O)n2-c2ccc(C(F)(F)F)cc2)c1)c1cccc(N)n1 [Example T-455] | ≤ 1000 | ≤ 1000
10 | Cn1cc2c(=O)n(-c3ccc(C(F)(F)F)cc3)c3ccc(NC(=O)N4CCCC4)cc3c2n1 [Example T-184] | ≤ 1000 | ≤ 1000
11 | COC(=O)Nc1ccc2c(c1)c1nn(C)cc1c(=O)n2-c1ccc(C(F)(F)F)cc1 [Example T-180] | ≤ 1000 | ≤ 1000
12 | CC/C=C/C(=O)Nc1ccc2c(c1)c1nn(C)cc1c(=O)n2-c1ccc(C(F)(F)F)cc1 [Example T-234] | ≤ 1000 | ≤ 1000
13 | C[C@H](NC(=O)c1ccc2c(c1)c1nn(C)cc1c(=O)n2-c1ccc(C(F)(F)F)cc1)c1cccc(F)n1 [Example T-153] | ≤ 1000 | ≤ 1000
14 | C[C@H](NC(=O)c1ccc2c(c1)c1c(F)cccc1c(=O)n2-c1ccc(C(F)(F)F)cc1)c1ccccn1 [Example T-258] | ≤ 1000 | ≤ 1000
15 | C[C@H](NC(=O)c1ccc2c(n1)c1ccccc1c(=O)n2-c1ccc(C(F)(F)F)cc1)c1ccccn1 [Example T-403] | ≤ 1000 | ≤ 1000
16 | Cc1scc2c(=O)n(-c3ccc(C(F)(F)F)cc3)c3ccc(C(=O)N[C@@H](C)c4ccccn4)cc3c12 [Example T-296] | ≤ 1000 | ≤ 1000
17 | C[C@H](NS(=O)(=O)c1ccc2c(c1)c1nn(C)cc1c(=O)n2-c1ccc(S(F)(F)(F)(F)F)cc1)c1ccccn1 [Example T-166] | 1000 to 5000 | 1000 to 5000
18 | CNS(=O)(=O)c1ccc2c(c1)c1ncn(C)c1c(=O)n2-c1ccc(C(F)(F)F)cc1 [Example T-15] | ≤ 1000 | ≤ 1000
19 | C[C@H](NC(=O)c1cnc2c(c1)c1csnc1c(=O)n2-c1ccc(C(F)(F)F)cc1)c1ccccn1 [Example T-439] | ≤ 1000 | ≤ 1000

Row | SMILES | IC50 (YAP-TEAD) [nM] | IC50 [1] [nM]
20 | Cn1cc2c(=O)n(-c3ccc(C(F)(F)F)cc3)c3ccc(C(=O)O)cc3c2n1 [Example T-110] | 1000 to 5000 | 1000 to 5000
21 | Cc1ccc(S(=O)(=O)Nc2ccc3c(c2)c2nn(C)cc2c(=O)n3-c2ccc(C(F)(F)F)cc2)cc1 [Example T-189] | ≤ 1000 | ≤ 1000
22 | CNC[C@H](C)NC(=O)c1ccc2c(c1)c1nn(C)cc1c(=O)n2-c1ccc(C(F)(F)F)cc1 [Example T-120] | 1000 to 5000 | 1000 to 5000
23 | C[C@H](NC(=O)c1cnc2c(c1)c1ccoc1c(=O)n2-c1ccc(C(F)(F)F)cc1)c1ccccn1 [Example T-400] | ≤ 1000 | ≤ 1000
24 | Cc1c(C)c2cc(C(=O)N[C@@H](C)c3ccccn3)ccc2n(-c2ccc(C(F)(F)F)cc2)c1=O [Example T-436] | ≤ 1000 | ≤ 1000
25 | Cc1cc2cc(C(=O)N[C@@H](C)c3ccccn3)ccc2n(-c2ccc(C(F)(F)F)cc2)c1=O [Example T-415] | ≤ 1000 | ≤ 1000
26 | C[C@H](NC(=O)c1cnc2c(c1)c1ccccc1c(=O)n2-c1ccc(C(F)(F)F)cc1)c1cccc(N)n1 [Example T-437] | ≤ 1000 | ≤ 1000
27 | C[C@H](NC(=O)c1ccc2c(c1)c1ccc(C#N)cc1c(=O)n2-c1ccc(C(F)(F)F)cc1)c1ccccn1 [Example T-320] | ≤ 1000 | ≤ 1000
28 | CCn1cc2c(=O)n(-c3ccc(C(F)(F)F)cc3)c3ncc(C(=O)N[C@@H](C)c4ccccn4)cc3c2n1 [Example T-401] | ≤ 1000 | ≤ 1000
29 | Cc1oc(C)c2c1c(=O)n(-c1ccc(C(F)(F)F)cc1)c1ccc(C(=O)N[C@@H](C)c3ccccn3)cc21 [Example T-289] | ≤ 1000 | ≤ 1000
30 | CNS(=O)(=O)c1ccc2c(c1)c1nn(C)cc1c(=O)n2-c1cccc(C)c1 [Example T-79] | ≤ 1000 | 1000 to 5000
31 | Cn1cc2c(=O)n(-c3ccc(C(F)(F)F)cc3)c3ccc(NS(=O)(=O)C(F)(F)F)cc3c2n1 [Example T-191] | ≤ 1000 | ≤ 1000
32 | C[C@H](NC(=O)c1ccc2c(c1)c1csc(Cl)c1c(=O)n2-c1ccc(C(F)(F)F)cc1)c1ccccn1 [Example T-300] | ≤ 1000 | ≤ 1000
33 | C[C@H](NC(=O)c1ccc2c(c1)c1nn(C)cc1c(=O)n2-c1ccc(S(F)(F)(F)(F)F)cc1)c1ccccn1 [Example T-227] | ≤ 1000 | ≤ 1000
34 | CC(C)NC(=O)c1ccc2c(c1)c1nn(C)cc1c(=O)n2-c1ccc(C(F)(F)F)cc1 [Example T-86] | ≤ 1000 | ≤ 1000
35 | COC[C@H](C)NC(=O)c1ccc2c(c1)C1=C(CCC1)CN2c1ccc(C(F)(F)F)cc1 [Example T-426] | ≤ 1000 | ≤ 1000
36 | C[C@H](NC(=O)c1cnc2c(c1)c1c(c(=O)n2-c2ccc(C(F)(F)F)cc2)CCC1)c1ccccn1 [Example T-245] | ≤ 1000 | ≤ 1000
37 | COC(=O)c1ccc2c(c1)c1ncn(C)c1c(=O)n2-c1ccc(C(F)(F)F)cc1 [Example T-99] | 1000 to 5000 | 1000 to 5000
38 | COC(=O)c1ccc2c(c1)c1nn(C)cc1c(=O)n2-c1ccc(C(F)(F)F)cc1 [Example T-100] | 1000 to 5000 | 1000 to 5000

Row | SMILES | IC50 (YAP-TEAD) [nM] | IC50 [1] [nM]
39 | Cn1cc2c(=O)n(-c3ccc(C(F)(F)F)cc3)c3ccc(NC(=O)c4ccccn4)cc3c2n1 [Example T-170] | ≤ 1000 | ≤ 1000
40 | CNS(=O)(=O)c1ccc2c(c1)c1nn(C)cc1c(=O)n2-c1cccc(C(F)(F)F)c1 [Example T-58] | ≤ 1000 | ≤ 1000
41 | Cc1cc(=O)n(-c2ccc(C(F)(F)F)cc2)c2ccc(C(=O)N[C@@H](C)c3cccc(N)n3)cc12 [Example T-413] | ≤ 1000 | ≤ 1000
42 | CN(C)CCCNC(=O)c1ccc2c(c1)c1nn(C)cc1c(=O)n2-c1ccc(C(F)(F)F)cc1 [Example T-118] | 1000 to 5000 | 1000 to 5000
43 | C[C@H](NC(=O)c1ccc2c(c1)c1c(c(=O)n2-c2ccc(C(F)(F)F)cc2)CCC(F)C1)c1ccccn1 (stereo partly drawn) [Example T-303] | ≤ 1000 | ≤ 1000
44 | C[C@H](NC(=O)c1cnc2c(c1)c1cocc1c(=O)n2-c1ccc(C(F)(F)F)cc1)c1ccccn1 [Example T-374] | ≤ 1000 | ≤ 1000
45 | CC1c2ccccc2-c2cc(C(=O)N[C@@H](C)c3ccccn3)ccc2N1c1ccc(C(F)(F)F)cc1 (stereo partly drawn) [Example T-281] | ≤ 1000 | ≤ 1000
46 | Cc1cc2cc(C(=O)N[C@@H](C)c3ccccc3)cnc2n(-c2ccc(C(F)(F)F)cc2)c1=O [Example T-462] | ≤ 1000 | ≤ 1000
47 | C[C@H](NC(=O)c1ccc2c(c1)c1c(c(=O)n2-c2ccc(C(F)(F)F)cc2)CCCC1(F)F)c1ccccn1 [Example T-306] | ≤ 1000 | ≤ 1000
48 | Cn1cc2c(=O)n(-c3ccc(C(F)(F)F)cc3)c3ccc(NS(=O)(=O)c4ccccc4)cc3c2n1 [Example T-186] | ≤ 1000 | ≤ 1000
49 | C=CC(=O)NC(C)c1c(C)c2ccccc2n(-c2ccc(C(F)(F)F)cc2)c1=O (stereo not drawn) [Example T-285] | 1000 to 5000 | 1000 to 5000
50 | CNS(=O)(=O)c1ccc2c(c1)-c1cn(C)nc1CC(=O)N2c1ccc(C(F)(F)F)cc1 [Example T-52] | ≤ 1000 | ≤ 1000
51 | C[C@H](NC(=O)c1ccc2c(n1)c1csc(Cl)c1c(=O)n2-c1ccc(C(F)(F)F)cc1)c1ccccn1 [Example T-388] | ≤ 1000 | ≤ 1000
52 | CC(C)NC(=O)c1ccc2c(c1)cc(Br)c(=O)n2-c1ccc(C(F)(F)F)cc1 [Example T-50] | 1000 to 5000 | 1000 to 5000
53 | Cn1cc2c(=O)n(-c3ccc(C(F)(F)F)cc3)c3ccc(NC(=O)C(F)(F)F)cc3c2n1 [Example T-174] | ≤ 1000 | ≤ 1000
54 | C[C@H](NC(=O)c1ccc2c(n1)c1cscc1c(=O)n2-c1ccc(C(F)(F)F)cc1)c1ccccn1 [Example T-384] | ≤ 1000 | ≤ 1000
55 | C=C1c2cn(C)nc2-c2cc(C(=O)N[C@@H](C)c3ccccn3)ccc2N1c1ccc(C(F)(F)F)cc1 [Example T-324] | ≤ 1000 | ≤ 1000
56 | C[C@H](NC(=O)c1ccc2c(c1)c1c(c(=O)n2-c2ccc(C(F)(F)F)cc2)C(F)(F)CC1)c1ccccn1 [Example T-295] | ≤ 1000 | ≤ 1000
57 | C[C@H](NC(=O)c1ccc2c(c1)c1c(c(=O)n2-c2ccc(C(F)(F)F)cc2)C(F)CC1)c1ccccn1 (stereo partly drawn) [Example T-292] | ≤ 1000 | ≤ 1000
